Data as given in the supplement of paper PMC6045584.
± gives the standard deviation of the averaged measurements.

Assays:
FLUOROURACIL = compound: O=c1[nH]cc(F)c(=O)[nH]1 [FLUOROURACIL]; assay: surviving fraction relative to DMSO-only wells; higher = less growth inhibition; settings: exposure time: 5 days
Summary of the method: (§1)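 Surviving fraction is CellTiter-Glo luminescence divided by the median of wells given DMSO only. For this, log-phase tumour cell lines went into 384-well plates at 250–500 cells per well and, 24 hours later, into five days of continuous inhibitor exposure at 0.5, 1, 5, 10, 50, 100, 500 and 1000 nM. Lines were screened three times and retained only if replicate Pearson r >0.7 and median Z' >0.3.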

RESVERATROL = compound: Oc1ccc(/C=C/c2cc(O)cc(O)c2)cc1 [RESVERATROL]; assay: as above; settings: exposure time: 5 days
Summary of the method: as §1

C33A CERVIX
surviving fraction (FLUOROURACIL; 0.5 nM): 1 ± 0.086
surviving fraction (FLUOROURACIL; 1 nM): 1.12 ± 0.043
surviving fraction (FLUOROURACIL; 5 nM): 1.08 ± 0.11
surviving fraction (FLUOROURACIL; 10 nM): 1.16 ± 0.05
surviving fraction (FLUOROURACIL; 50 nM): 1.1 ± 0.055
surviving fraction (FLUOROURACIL; 100 nM): 1.1 ± 0.06
surviving fraction (FLUOROURACIL; 500 nM): 1.02 ± 0.085
surviving fraction (FLUOROURACIL; 1000 nM): 1.28 ± 0.055
surviving fraction (RESVERATROL; 0.5 nM): 0.928 ± 0.045
surviving fraction (RESVERATROL; 1 nM): 0.933 ± 0.052
surviving fraction (RESVERATROL; 5 nM): 0.956 ± 0.14
surviving fraction (RESVERATROL; 10 nM): 0.998 ± 0.032
surviving fraction (RESVERATROL; 50 nM): 0.978 ± 0.028
surviving fraction (RESVERATROL; 100 nM): 0.974 ± 0.096
surviving fraction (RESVERATROL; 500 nM): 0.946 ± 0.023
surviving fraction (RESVERATROL; 1000 nM): 0.958 ± 0.049

MDAMB453 BREAST
surviving fraction (FLUOROURACIL; 0.5 nM): 1.01 ± 0.092
surviving fraction (FLUOROURACIL; 1 nM): 1.01 ± 0.13
surviving fraction (FLUOROURACIL; 5 nM): 1.06 ± 0.11
surviving fraction (FLUOROURACIL; 10 nM): 0.987 ± 0.079
surviving fraction (FLUOROURACIL; 50 nM): 0.979 ± 0.035
surviving fraction (FLUOROURACIL; 100 nM): 0.968 ± 0.016
surviving fraction (FLUOROURACIL; 500 nM): 0.795 ± 0.026
surviving fraction (FLUOROURACIL; 1000 nM): 0.706 ± 0.009
surviving fraction (RESVERATROL; 0.5 nM): 1.07 ± 0.059
surviving fraction (RESVERATROL; 1 nM): 1.06 ± 0.06
surviving fraction (RESVERATROL; 5 nM): 1.16 ± 0.022
surviving fraction (RESVERATROL; 10 nM): 1.11 ± 0.039
surviving fraction (RESVERATROL; 50 nM): 1.16 ± 0.05
surviving fraction (RESVERATROL; 100 nM): 1.12 ± 0.069
surviving fraction (RESVERATROL; 500 nM): 1.04 ± 0.058
surviving fraction (RESVERATROL; 1000 nM): 1.09 ± 0.019

VCAP PROSTATE
surviving fraction (FLUOROURACIL; 0.5 nM): 1.03 ± 0.11
surviving fraction (FLUOROURACIL; 1 nM): 1.06 ± 0.026
surviving fraction (FLUOROURACIL; 5 nM): 1.09 ± 0.044
surviving fraction (FLUOROURACIL; 10 nM): 1.22 ± 0.097
surviving fraction (FLUOROURACIL; 50 nM): 1.05 ± 0.077
surviving fraction (FLUOROURACIL; 100 nM): 0.998 ± 0.22
surviving fraction (FLUOROURACIL; 500 nM): 0.916 ± 0.17
surviving fraction (FLUOROURACIL; 1000 nM): 0.939 ± 0.049
surviving fraction (RESVERATROL; 0.5 nM): 1.02 ± 0.18
surviving fraction (RESVERATROL; 1 nM): 0.812 ± 0.12
surviving fraction (RESVERATROL; 5 nM): 0.994 ± 0.12
surviving fraction (RESVERATROL; 10 nM): 1.02 ± 0.13
surviving fraction (RESVERATROL; 50 nM): 0.901 ± 0.061
surviving fraction (RESVERATROL; 100 nM): 0.978 ± 0.017
surviving fraction (RESVERATROL; 500 nM): 0.88 ± 0.07
surviving fraction (RESVERATROL; 1000 nM): 0.931 ± 0.18

HOS BONE
surviving fraction (FLUOROURACIL; 0.5 nM): 1.05 ± 0.025
surviving fraction (FLUOROURACIL; 1 nM): 1.01 ± 0.017
surviving fraction (FLUOROURACIL; 5 nM): 1.02 ± 0.015
surviving fraction (FLUOROURACIL; 10 nM): 0.99 ± 0.015
surviving fraction (FLUOROURACIL; 50 nM): 1.03 ± 0.039
surviving fraction (FLUOROURACIL; 100 nM): 1.01 ± 0.034
surviving fraction (FLUOROURACIL; 500 nM): 0.8203 ± 0.0081
surviving fraction (FLUOROURACIL; 1000 nM): 0.639 ± 0.032
surviving fraction (RESVERATROL; 0.5 nM): 1.016 ± 0.0053
surviving fraction (RESVERATROL; 1 nM): 1.05 ± 0.03
surviving fraction (RESVERATROL; 5 nM): 1.018 ± 0.009
surviving fraction (RESVERATROL; 10 nM): 1.02 ± 0.021
surviving fraction (RESVERATROL; 50 nM): 1.03 ± 0.012
surviving fraction (RESVERATROL; 100 nM): 1.06 ± 0.036
surviving fraction (RESVERATROL; 500 nM): 1.05 ± 0.024
surviving fraction (RESVERATROL; 1000 nM): 1.07 ± 0.025

VP229 BREAST
surviving fraction (FLUOROURACIL; 0.5 nM): 1.08 ± 0.036
surviving fraction (FLUOROURACIL; 1 nM): 0.988 ± 0.05
surviving fraction (FLUOROURACIL; 5 nM): 1.1 ± 0.13
surviving fraction (FLUOROURACIL; 10 nM): 0.92 ± 0.16
surviving fraction (FLUOROURACIL; 50 nM): 0.905 ± 0.068
surviving fraction (FLUOROURACIL; 100 nM): 0.827 ± 0.062
surviving fraction (FLUOROURACIL; 500 nM): 0.773 ± 0.095
surviving fraction (FLUOROURACIL; 1000 nM): 0.654 ± 0.18
surviving fraction (RESVERATROL; 0.5 nM): 1.19 ± 0.11
surviving fraction (RESVERATROL; 1 nM): 1.32 ± 0.14
surviving fraction (RESVERATROL; 5 nM): 1.19 ± 0.12
surviving fraction (RESVERATROL; 10 nM): 1.2 ± 0.17
surviving fraction (RESVERATROL; 50 nM): 1.09 ± 0.18
surviving fraction (RESVERATROL; 100 nM): 1.22 ± 0.095
surviving fraction (RESVERATROL; 500 nM): 1.23 ± 0.16
surviving fraction (RESVERATROL; 1000 nM): 1.12 ± 0.19

HCT15 LARGE INTESTINE
surviving fraction (FLUOROURACIL; 0.5 nM): 1.05 ± 0.062
surviving fraction (FLUOROURACIL; 1 nM): 1.01 ± 0.051
surviving fraction (FLUOROURACIL; 5 nM): 1.043 ± 0.01
surviving fraction (FLUOROURACIL; 10 nM): 0.995 ± 0.06
surviving fraction (FLUOROURACIL; 50 nM): 0.976 ± 0.069
surviving fraction (FLUOROURACIL; 100 nM): 0.878 ± 0.048
surviving fraction (FLUOROURACIL; 500 nM): 0.262 ± 0.013
surviving fraction (FLUOROURACIL; 1000 nM): 0.163 ± 0.0084
surviving fraction (RESVERATROL; 0.5 nM): 0.982 ± 0.12
surviving fraction (RESVERATROL; 1 nM): 1.03 ± 0.12
surviving fraction (RESVERATROL; 5 nM): 1.02 ± 0.1
surviving fraction (RESVERATROL; 10 nM): 1.02 ± 0.093
surviving fraction (RESVERATROL; 50 nM): 1.05 ± 0.08
surviving fraction (RESVERATROL; 100 nM): 1.06 ± 0.095
surviving fraction (RESVERATROL; 500 nM): 0.968 ± 0.15
surviving fraction (RESVERATROL; 1000 nM): 1.08 ± 0.11

HOSMNG BONE
surviving fraction (FLUOROURACIL; 0.5 nM): 0.969 ± 0.012
surviving fraction (FLUOROURACIL; 1 nM): 1.03 ± 0.037
surviving fraction (FLUOROURACIL; 5 nM): 0.933 ± 0.024
surviving fraction (FLUOROURACIL; 10 nM): 0.962 ± 0.043
surviving fraction (FLUOROURACIL; 50 nM): 1.12 ± 0.13
surviving fraction (FLUOROURACIL; 100 nM): 1.19 ± 0.042
surviving fraction (FLUOROURACIL; 500 nM): 1.03 ± 0.031
surviving fraction (FLUOROURACIL; 1000 nM): 1.02 ± 0.037
surviving fraction (RESVERATROL; 0.5 nM): 0.83 ± 0.15
surviving fraction (RESVERATROL; 1 nM): 0.872 ± 0.023
surviving fraction (RESVERATROL; 5 nM): 0.832 ± 0.1
surviving fraction (RESVERATROL; 10 nM): 0.722 ± 0.061
surviving fraction (RESVERATROL; 50 nM): 0.827 ± 0.11
surviving fraction (RESVERATROL; 100 nM): 0.877 ± 0.11
surviving fraction (RESVERATROL; 500 nM): 0.878 ± 0.072
surviving fraction (RESVERATROL; 1000 nM): 0.924 ± 0.1

HUO3N1 BONE
surviving fraction (FLUOROURACIL; 0.5 nM): 1 ± 0.047
surviving fraction (FLUOROURACIL; 1 nM): 1.06 ± 0.02
surviving fraction (FLUOROURACIL; 5 nM): 1.09 ± 0.031
surviving fraction (FLUOROURACIL; 10 nM): 1.07 ± 0.05
surviving fraction (FLUOROURACIL; 50 nM): 1.03 ± 0.059
surviving fraction (FLUOROURACIL; 100 nM): 0.99 ± 0.046
surviving fraction (FLUOROURACIL; 500 nM): 0.973 ± 0.036
surviving fraction (FLUOROURACIL; 1000 nM): 0.91 ± 0.029
surviving fraction (RESVERATROL; 0.5 nM): 1.01 ± 0.036
surviving fraction (RESVERATROL; 1 nM): 1.07 ± 0.037
surviving fraction (RESVERATROL; 5 nM): 1.04 ± 0.034
surviving fraction (RESVERATROL; 10 nM): 1.06 ± 0.06
surviving fraction (RESVERATROL; 50 nM): 1.09 ± 0.035
surviving fraction (RESVERATROL; 100 nM): 1.1 ± 0.037
surviving fraction (RESVERATROL; 500 nM): 1.07 ± 0.029
surviving fraction (RESVERATROL; 1000 nM): 1.01 ± 0.067

KPD BONE
surviving fraction (FLUOROURACIL; 0.5 nM): 0.982 ± 0.018
surviving fraction (FLUOROURACIL; 1 nM): 0.922 ± 0.052
surviving fraction (FLUOROURACIL; 5 nM): 1.02 ± 0.07
surviving fraction (FLUOROURACIL; 10 nM): 1.03 ± 0.044
surviving fraction (FLUOROURACIL; 50 nM): 1.05 ± 0.048
surviving fraction (FLUOROURACIL; 100 nM): 1.02 ± 0.051
surviving fraction (FLUOROURACIL; 500 nM): 0.9797 ± 0.0032
surviving fraction (FLUOROURACIL; 1000 nM): 0.926 ± 0.022
surviving fraction (RESVERATROL; 0.5 nM): 0.997 ± 0.054
surviving fraction (RESVERATROL; 1 nM): 1.03 ± 0.032
surviving fraction (RESVERATROL; 5 nM): 1.08 ± 0.04
surviving fraction (RESVERATROL; 10 nM): 1.09 ± 0.063
surviving fraction (RESVERATROL; 50 nM): 1.02 ± 0.017
surviving fraction (RESVERATROL; 100 nM): 1.08 ± 0.041
surviving fraction (RESVERATROL; 500 nM): 0.969 ± 0.044
surviving fraction (RESVERATROL; 1000 nM): 1.05 ± 0.028

MDAMB361 BREAST
surviving fraction (FLUOROURACIL; 0.5 nM): 0.725 ± 0.094
surviving fraction (FLUOROURACIL; 1 nM): 0.747 ± 0.067
surviving fraction (FLUOROURACIL; 5 nM): 0.8 ± 0.092
surviving fraction (FLUOROURACIL; 10 nM): 0.758 ± 0.12
surviving fraction (FLUOROURACIL; 50 nM): 0.537 ± 0.042
surviving fraction (FLUOROURACIL; 100 nM): 0.618 ± 0.027
surviving fraction (FLUOROURACIL; 500 nM): 0.704 ± 0.08
surviving fraction (FLUOROURACIL; 1000 nM): 0.65 ± 0.061
surviving fraction (RESVERATROL; 0.5 nM): 0.839 ± 0.071
surviving fraction (RESVERATROL; 1 nM): 0.871 ± 0.11
surviving fraction (RESVERATROL; 5 nM): 0.894 ± 0.089
surviving fraction (RESVERATROL; 10 nM): 0.898 ± 0.079
surviving fraction (RESVERATROL; 50 nM): 0.948 ± 0.012
surviving fraction (RESVERATROL; 100 nM): 0.884 ± 0.021
surviving fraction (RESVERATROL; 500 nM): 0.949 ± 0.082
surviving fraction (RESVERATROL; 1000 nM): 0.952 ± 0.17
